From ChEMBL document CHEMBL3244419 come the findings set out here.

Active and inactive are the calls of the source. No cut-off for these calls is given here.

For experiment [1], the species on record is Cavia porcellus. Nature of the experiment: Agonist activity at opioid receptor in electrically stimulated guinea pig ileum at <50 uM. Type of experiment: tissue-based.
The species entered for experiment [2] is Cavia porcellus. Nature of the experiment: Agonist activity at opioid receptor in electrically stimulated guinea pig ileum at >=50 uM. Type of experiment: tissue-based.
Experiment [3] relates to NG108-15. The experiment in a line: Agonist activity at opioid receptor in mouse/rat NG108-15 cells assessed by adenylate cyclase assay. Type of experiment: cell-based.
The species entered for experiment [4] is Cavia porcellus. To be noted: Ileum, 10 nM.
Experiment [5] deals with NG108-15. The following applies: 0.5 uM.
Description: Antagonist activity at opioid receptor in mouse/rat NG108-15 cells assessed as reversal of morphine-induced inhibition of adenylate cyclase activity at 0.5 uM

`C=CCN1CC[C@@]23c4c5ccc(O)c4O[C@@H]2C(=O)CC[C@]3(O)[C@@H]1C5`: the result in the experiment filed under Cavia porcellus [1], in the experiment listed under Cavia porcellus [2] and with NG108-15 [3] was inactive.

For `C=CCN1CC[C@]23c4c5ccc(O)c4O[C@H]2C(=O)CC[C@@]3(O)[C@H]1C5`, the inhibition entry in the experiment filed under Cavia porcellus [4] and with NG108-15 [5] was “Active” in each case.
